# Measured values reported in the NIST ThermoML archive (doi:10.1016/j.jct.2018.12.006).
# ± gives the expanded uncertainty stated by the source.
# Settings: 101.33 kPa, Crystal; for molar entropy: Small (less than 1 g) adiabatic calorimetry; for mass density: X-ray diffraction
compound,measurement,setting,value
C[N+](C)(C)C[C@H](O)CC(=O)[O-] [(R)-3-hydroxy-4-(trimethylammonio)butanoate],molar entropy,5 K,0.0967 ± 0.025 J/K/mol
same,molar entropy,10 K,0.77 ± 0.058 J/K/mol
same,molar entropy,15 K,2.46 ± 0.16 J/K/mol
same,molar entropy,20 K,5.34 ± 0.33 J/K/mol
same,molar entropy,25 K,8.973 ± 0.18 J/K/mol
same,molar entropy,30 K,13 ± 0.26 J/K/mol
same,molar entropy,35 K,17.28 ± 0.33 J/K/mol
same,molar entropy,40 K,21.73 ± 0.39 J/K/mol
same,molar entropy,45 K,26.33 ± 0.29 J/K/mol
same,molar entropy,50 K,31.04 ± 0.33 J/K/mol
same,molar entropy,60 K,40.65 ± 0.4 J/K/mol
same,molar entropy,70 K,50.3 ± 0.48 J/K/mol
same,molar entropy,80 K,59.86 ± 0.56 J/K/mol
same,molar entropy,90 K,69.27 ± 0.66 J/K/mol
same,molar entropy,100 K,78.52 ± 0.72 J/K/mol
same,molar entropy,110 K,87.63 ± 0.79 J/K/mol
same,molar entropy,120 K,96.63 ± 0.85 J/K/mol
same,molar entropy,130 K,105.5 ± 0.9 J/K/mol
same,molar entropy,140 K,114.3 ± 1 J/K/mol
same,molar entropy,150 K,122.9 ± 1 J/K/mol
same,mass density,150 K,1256 ± 6 kg/m3
same,molar entropy,160 K,131.4 ± 1.1 J/K/mol
same,molar entropy,170 K,139.9 ± 1.2 J/K/mol
same,mass density,175 K,1250 ± 6 kg/m3
same,molar entropy,180 K,148.2 ± 1.2 J/K/mol
same,molar entropy,190 K,156.4 ± 1.3 J/K/mol
same,molar entropy,200 K,164.5 ± 1.3 J/K/mol
same,mass density,200 K,1253 ± 6 kg/m3
same,molar entropy,210 K,172.5 ± 1.4 J/K/mol
same,molar entropy,220 K,180.3 ± 1.5 J/K/mol
same,mass density,225 K,1247 ± 6 kg/m3
same,molar entropy,230 K,188.1 ± 1.5 J/K/mol
same,molar entropy,240 K,195.9 ± 1.6 J/K/mol
same,molar entropy,250 K,203.6 ± 1.6 J/K/mol
same,mass density,250 K,1247 ± 6 kg/m3
same,molar entropy,260 K,211.2 ± 1.7 J/K/mol
same,molar entropy,270 K,218.8 ± 1.7 J/K/mol
same,molar entropy,273.15 K,221.2 ± 1.8 J/K/mol
same,mass density,275 K,1250 ± 6 kg/m3
same,molar entropy,280 K,226.4 ± 1.8 J/K/mol
same,molar entropy,290 K,233.9 ± 1.9 J/K/mol
same,molar entropy,298.15 K,240.1 ± 1.9 J/K/mol
same,molar entropy,300 K,241.5 ± 1.9 J/K/mol
same,mass density,300 K,1245 ± 6 kg/m3
same,molar entropy,310 K,249 ± 2 J/K/mol
same,molar entropy,320 K,256.5 ± 2 J/K/mol
same,mass density,325 K,1236 ± 6 kg/m3
same,molar entropy,330 K,264 ± 2.1 J/K/mol
same,molar entropy,340 K,271.5 ± 2.1 J/K/mol
same,molar entropy,350 K,279 ± 2.2 J/K/mol
same,mass density,350 K,1239 ± 6 kg/m3
same,mass density,375 K,1242 ± 6 kg/m3
same,mass density,400 K,1236 ± 6 kg/m3
same,mass density,425 K,1236 ± 7 kg/m3
